For the test, the target named is T1, human GlyT1c transporter (Homo sapiens, UniProt P48067).
T1 sequence (P48067 1-706): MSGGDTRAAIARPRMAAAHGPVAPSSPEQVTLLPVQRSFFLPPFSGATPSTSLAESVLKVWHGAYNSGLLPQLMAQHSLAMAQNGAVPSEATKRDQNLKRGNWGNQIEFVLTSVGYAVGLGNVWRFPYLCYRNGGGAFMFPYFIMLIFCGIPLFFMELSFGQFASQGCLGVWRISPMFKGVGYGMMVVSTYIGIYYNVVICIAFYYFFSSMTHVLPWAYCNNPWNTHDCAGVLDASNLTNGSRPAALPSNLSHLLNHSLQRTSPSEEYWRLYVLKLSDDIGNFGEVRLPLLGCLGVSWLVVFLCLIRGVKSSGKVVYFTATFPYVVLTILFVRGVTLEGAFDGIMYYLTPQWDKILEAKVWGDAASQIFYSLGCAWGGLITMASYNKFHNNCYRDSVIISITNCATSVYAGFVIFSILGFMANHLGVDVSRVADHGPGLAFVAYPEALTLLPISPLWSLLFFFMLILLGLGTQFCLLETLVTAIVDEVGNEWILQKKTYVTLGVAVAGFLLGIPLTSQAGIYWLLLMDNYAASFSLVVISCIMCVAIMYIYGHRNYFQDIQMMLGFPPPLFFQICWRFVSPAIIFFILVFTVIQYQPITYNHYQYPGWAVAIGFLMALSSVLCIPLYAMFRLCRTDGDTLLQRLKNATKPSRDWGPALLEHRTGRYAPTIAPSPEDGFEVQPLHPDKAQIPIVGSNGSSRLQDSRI
In words: Radioligand binding assays using recombinant CHO cell membranes expressing human GlyT1. The following applies: radioligand binding to human GlyT1c transporter-expressing CHO cell membranes.

By Ki is commonly meant a dissociation constant, usually derived from enzyme kinetics or from competition with a known ligand. As for `Cn1cnc(S(=O)(=O)N2C[C@H](Nc3ccc(F)c(C(F)(F)F)c3)[C@@H](C3OCCCO3)C2)c1` [Example 912, (3R,4S)-4-(1,3-dioxan-2-yl)-N-[4-fluoro-3-(trifluoromethyl)phenyl]-1-[(1-methyl-1H-imidazol-4-yl)sulfonyl]pyrrolidin-3-amine], the Ki (Ki) was not above 10 nM.
`Cn1cnc(S(=O)(=O)N2CC(c3ccccc3)C3(COC(=O)N3Cc3ccc(C(F)(F)F)cc3)C2)c1` (stereo not drawn) [Example 407, Trans-7-[(1-methyl-1H-imidazol-4-yl)sulfonyl]-9-phenyl-1-[4-(trifluoromethyl)benzyl]-3-oxa-1,7-diazaspiro[4.4]nonan-2-one]: under “Ki”, the Ki was not above 10000 nM.
On the same count and under the same terms, under `CN1CCCCC1C1CN(S(=O)(=O)c2cn(C)cn2)CC1Nc1cccc(OC(F)(F)F)c1` (stereo not shown) [Example 898, 1-[(1-methyl-1H-imidazol-4-yl)sulfonyl]-4-(1-methylpiperidin-2-yl)-N-[3-(trifluoromethoxy)phenyl]pyrrolidin-3-amine] stands not above 10 nM; under `Cn1cnc(S(=O)(=O)N2C[C@@H]3c4ccccc4C[C@@]3(NCc3ccc(C(F)(F)F)cc3Cl)C2)c1` (relative stereo) [Example 885, trans-N-[2-chloro-4-(trifluoromethyl)benzyl]-2-[(1-methyl-1H-imidazol-4-yl)sulfonyl]-2,3,3a,8-tetrahydroindeno[1,2-c]pyrrol-8a(1H)-amine], not above 100 nM; under `Cn1cnc(S(=O)(=O)N2CC(Cc3cccc(C(F)(F)F)c3)C(C3OCCCO3)C2)c1` (stereo not shown) [Example 918, 4-({3-(1,3-dioxan-2-yl)-4-[3-(trifluoromethyl)benzyl]pyrrolidin-1-yl}sulfonyl)-1-methyl-1H-imidazole], not above 1000 nM.
Regarding `Cc1cccc(CN[C@@H]2CN(S(=O)(=O)c3cn(C)cn3)C[C@H]2c2ccc(F)cc2)c1` (relative stereo) [Example 154, trans-4-(4-fluorophenyl)-N-(3-methylbenzyl)-1-[(1-methyl-1H-imidazol-4-yl)sulfonyl]pyrrolidin-3-amine], the Ki (Ki) was not above 100 nM.
On the same count and under the same terms, under `Cn1cnc(S(=O)(=O)N2CC(COc3ccc(F)cc3)C(c3ccccn3)C2)c1` (stereo not shown) [Example 886, 2-{4-[(4-fluorophenoxy)methyl]-1-[(1-methyl-1H-imidazol-4-yl)sulfonyl]pyrrolidin-3-yl}pyridine] stands not above 1000 nM; under `Cn1cnc(S(=O)(=O)N2C[C@@H](NCc3ccc(C(F)(F)F)cc3Cl)[C@H](c3ncccc3F)C2)c1` (relative stereo) [Example 761, Trans-N-[2-chloro-4-(trifluoromethyl)benzyl]-4-(3-fluoropyridin-2-yl)-1-[(1-methyl-1H-imidazol-4-yl)sulfonyl]pyrrolidin-3-amine], not above 100 nM; under `Cn1cc(S(=O)(=O)N2CC(Cc3cccc(C(F)(F)F)c3)C(C3OCCCO3)C2)nn1` (stereo not shown) [Example 919, 4-({3-(1,3-dioxan-2-yl)-4-[3-(trifluoromethyl)benzyl]pyrrolidin-1-yl}sulfonyl)-1-methyl-1H-1,2,3-triazole], not above 10000 nM.
Take “4-({(3R,4S)-1-[(1-methyl-1H-imidazol-4-yl)sulfonyl]-4-phenylpyrrolidin-3-yl}amino)-2,3-dihydro-1H-isoindol-1-one [Example 421]”: the inhibitory constant (Ki) was not above 10000 nM.
`Cn1cnc(S(=O)(=O)N2C[C@H](Nc3cc(OCC(F)(F)F)ccn3)[C@@H](c3ccccc3)C2)c1` [Example 809, N-{(3R,4S)-1-[(1-methyl-1H-imidazol-4-yl)sulfonyl]-4-phenylpyrrolidin-3-yl}-4-(2,2,2-trifluoroethoxy)pyridin-2-amine]: the Ki (Ki) was not above 10 nM.
Still for that read-out and setting: then `Cn1cnc(S(=O)(=O)N2C[C@@H](c3ccccc3)[C@](C)(NCc3ccc(C(F)(F)F)cc3Cl)C2)c1` (relative stereo) [Example 356, Trans-N-[2-chloro-4-(trifluoromethyl)benzyl]-3-methyl-1-[(1-methyl-1H-imidazol-4-yl)sulfonyl]-4-phenylpyrrolidin-3-amine], with not above 100 nM; and `CCCCc1cn([C@H]2CN(S(=O)(=O)c3cn(C)cn3)C[C@@H]2c2ccccc2)nn1` [Example 668, 4-butyl-1-{(3R,4S)-1-[(1-methyl-1H-imidazol-4-yl)sulfonyl]-4-phenylpyrrolidin-3-yl}-1H-1,2,3-triazole], with not above 10000 nM.
On the same count and under the same terms, then `Cn1cnc(S(=O)(=O)N2C[C@H](NC3CCc4ccccc43)[C@@H](C3OCCCO3)C2)c1` (stereo partly drawn) [Example 903, (3R,4S)-N-(2,3-dihydro-1H-inden-1-yl)-4-(1,3-dioxan-2-yl)-1-[(1-methyl-1H-imidazol-4-yl)sulfonyl]pyrrolidin-3-amine], with not above 10 nM.
For `Cn1cnc(S(=O)(=O)N2C[C@@H](c3ccccc3)[C@](CO)(NCc3ccc(C(F)(F)F)cc3)C2)c1` (relative stereo) [Example 401], under “Ki”, the inhibition constant Ki is not above 10000 nM.
The same measure, in the same setting: then `Cn1cnc(S(=O)(=O)N2C[C@H](c3ccc(F)cc3)[C@@H](N3C(=O)Cc4ccccc43)C2)c1` [Example 883, 1-{(3R,4S)-4-(4-fluorophenyl)-1-[(1-methyl-1H-imidazol-4-yl)sulfonyl]pyrrolidin-3-yl}-1,3-dihydro-2H-indol-2-one], with not above 10000 nM; and `Cn1cnc(S(=O)(=O)N2C[C@H](c3ccc(F)cc3)[C@@H](N3CCS(=O)(=O)CC3)C2)c1` [Example 864, 4-{(3R,4S)-4-(4-fluorophenyl)-1-[(1-methyl-1H-imidazol-4-yl)sulfonyl]pyrrolidin-3-yl}thiomorpholine 1,1-dioxide], with not above 10000 nM; and `CCCCNC(=O)O[C@@H]1CN(S(=O)(=O)c2cn(C)cn2)C[C@H]1c1ccc(F)cc1` [Example 699, (3S,4R)-4-(4-fluorophenyl)-1-[(1-methyl-1H-imidazol-4-yl)sulfonyl]pyrrolidin-3-yl butylcarbamate], with not above 1000 nM.
The same measure, in the same setting: under `C[C@@H]1C[C@@H](C)OC([C@H]2CN(S(=O)(=O)c3cn(C)cn3)C[C@@H]2Nc2cccc(OC(F)(F)F)c2)O1` (stereo partly drawn) [Example 921, (3R,4S)-4-[(4R,6R)-4,6-dimethyl-1,3-dioxan-2-yl]-1-[(1-methyl-1H-imidazol-4-yl)sulfonyl]-N-[3-(trifluoromethoxy)phenyl]pyrrolidin-3-amine] stands not above 100 nM.
On to `Cn1cnc(S(=O)(=O)N2C[C@H](Nc3cc(C(F)(F)F)c(Cl)cn3)[C@@H](C3OCCCO3)C2)c1` [Example 911, 5-chloro-N-{(3R,4S)-4-(1,3-dioxan-2-yl)-1-[(1-methyl-1H-imidazol-4-yl)sulfonyl]pyrrolidin-3-yl}-4-(trifluoromethyl)pyridin-2-amine], for which the Ki (Ki) was not above 10 nM.
`Cn1cnc(S(=O)(=O)N2CC3CCCN(C(=O)c4ccc(Cl)cc4Cl)C3C2)c1` (stereo not shown) [Example 873, (2,4-dichlorophenyl){6-[(1-methyl-1H-imidazol-4-yl)sulfonyl]octahydro-1H-pyrrolo[3,4-b]pyridin-1-yl}methanone]: for the setting “Ki”, the Ki is not above 10000 nM.
As for `Cn1cnc(S(=O)(=O)N2C[C@H](Nc3cccc(OCC(F)(F)F)c3)[C@@H](C3OCCCO3)C2)c1` [Example 899, (3R,4S)-4-(1,3-dioxan-2-yl)-1-[(1-methyl-1H-imidazol-4-yl)sulfonyl]-N-[3-(2,2,2-trifluoroethoxy)phenyl]pyrrolidin-3-amine], the Ki (Ki) was not above 100 nM.
The same measure, in the same setting: under `Cn1cnc(S(=O)(=O)N2CC3CCCN(C(=O)c4cccc(C(F)(F)F)c4Cl)C3C2)c1` (stereo not shown) [Example 874, [2-chloro-3-(trifluoromethyl)phenyl]{6-[(1-methyl-1H-imidazol-4-yl)sulfonyl]octahydro-1H-pyrrolo[3,4-b]pyridin-1-yl}methanone] stands not above 10000 nM.
Turning to `Cn1cnc(S(=O)(=O)N2C[C@H](Nc3cccc(C(F)(F)F)c3)[C@@H](C3OCCCO3)C2)c1` [Example 915, (3R,4S)-4-(1,3-dioxan-2-yl)-1-[(1-methyl-1H-imidazol-4-yl)sulfonyl]-N-[3-(trifluoromethyl)phenyl]pyrrolidin-3-amine], the Ki (Ki) is not above 10 nM.
On to “(3R,4S)-N-[2-chloro-4-(trifluoromethyl)benzyl]-1-[(1-methyl-1H-imidazol-4-yl)sulfonyl]-4-phenylpyrrolidin-3-amine [Example 394]”, for which the Ki was not above 10 nM.
Consider `Cn1cnc(S(=O)(=O)N2C[C@H](Nc3cccc(OC(F)(F)F)c3)[C@@H](C3OCC4(CC4)CO3)C2)c1` [Example 920, (3R,4S)-4-(5,7-dioxaspiro[2.5]oct-6-yl)-1-[(1-methyl-1H-imidazol-4-yl)sulfonyl]-N-[3-(trifluoromethoxy)phenyl]pyrrolidin-3-amine], for which the Ki (Ki) was not above 10 nM.
Consider `C=C(C)C1CCC(C)C(N[C@H]2CN(S(=O)(=O)c3cn(C)cn3)C[C@@H]2c2ccc(F)cc2)C1` (stereo partly drawn) [Example 867, (3R,4S)-4-(4-fluorophenyl)-1-[(1-methyl-1H-imidazol-4-yl)sulfonyl]-N-[2-methyl-5-(prop-1-en-2-yl)cyclohexyl]pyrrolidin-3-amine], for which the inhibitory constant (Ki) (Ki) is not above 100 nM.
Still for that read-out and setting: under `Cn1cnc(S(=O)(=O)N2C[C@@H](Nc3ccc(OC(F)(F)F)c(C#N)c3)[C@H](c3ccccc3)C2)c1` (racemic) [Example 102, 5-({trans-1-[(1-methyl-1H-imidazol-4-yl)sulfonyl]-4-phenylpyrrolidin-3-yl}amino)-2-(trifluoromethoxy)benzonitrile] stands not above 1000 nM.

(Values after US9650334B2 (AbbVie Deutschland GmbH & Co. KG, priority 2013, dated 2017).)
